Data on one compound can be found in patent US20260191853A1, “METHOD OF TREATING DRUG-INDUCED BRADYARRHYTHMIA” (OSAKA UNIVERSITY, priority 2022, published 2026).

Data set [1] deals with Hartley guinea pigs. Kind of data set: Preventive effect on fingolimod-induced bradyarrhythmia in isoflurane-anesthetized guinea pig model. Format: in vivo. The protocol: A solvent or compound (I) (free form) was administered by oral gavage at a dose of 1, 3, or 10 mg/kg (volume: 5 mL/kg) to Hartley guinea pigs (7 to 10 weeks old, male, available from Japan SLC, Inc.). After completion of the administration, each animal was subjected to anesthetic induction by inhalation of isoflurane (available from Pfizer Japan Inc.), and the animal was held on an operating table having a heater function. The trachea was incised, and a tracheal cannula (KN-375, available from Natsume Seisakusho Co., Ltd.) was inserted. The tracheal cannula was connected to a ventilator (SN-480-7, available from Shinano Seisakusho Co., Ltd.), and artificial respiration was controlled by supplying 100% oxygen at a volume of 10 mL and a ventilation rate of 60 times/minute. The solvent used was 0.5 w/v % methyl cellulose 400 solution (available from FUJIFILM Wako Pure Chemical Corporation). Isoflurane (available from Pfizer Japan Inc.) anesthesia (about 1 to 4%, carrier gas: 100% oxygen) was used for maintenance of anesthesia. A catheter (BD intramedic polyethylene tubing PE50, available from Becton, Dickinson and Company) charged with 50 units/mL heparin (available from AY PHARMACEUTICALS CO., LTD.) was inserted into each of the carotid artery and the jugular vein and placed in the blood vessel. Systemic blood pressure was measured with a high-sensitivity DC amplifier (AD-611J, available from NIHON KOHDEN CORPORATION) via the catheter placed in the carotid artery. Electrodes were attached to the body surface, and a body surface electrocardiogram was measured with a high-sensitivity amplifier (AB-611J, available from NIHON KOHDEN CORPORATION). Blood pressure and electrocardiogram data were acquired and analyzed with PowerLab/Labchart system (available from ADInstruments). Analysis items are systolic blood pressure, diastolic blood pressure, average blood pressure, heart rate, P-wave width, PR interval, QRS width, QT interval, and corrected QT interval. Corrected QT interval was calculated using the fridericia formula (QTc=QT interval/RR interval^1/3). After stabilization of each parameter, fingolimod hydrochloride (synthesized with reference to WO 2000/027798) was continuously administered intravenously at 0.1 mg/kg for 10 minutes via the catheter placed in the jugular vein, followed by observation of the presence or absence of the onset of bradyarrhythmia for 60 minutes. The solvent used was saline (available from Otsuka Pharmaceutical Factory, Inc.). Data were recorded and blood was collected 5, 10, 15, 20, 30, and 60 minutes after initiation of administration of fingolimod hydrochloride. The observation was terminated 60 minutes after initiation of the administration, and the animal was euthanized by exsanguination or intravenous administration of a large amount of pentobarbital or saturated potassium chloride solution under isoflurane anesthesia. Data were analyzed for atrial beating rate over time, ventricular beating rate over time, electrocardiographic parameters, the presence or absence of the onset of atrioventricular block, and plasma concentrations of compound (I), fingolimod, and fingolimod phosphorylated form. The plasma was collected by centrifuging the blood and cryopreserved at about −20° C. After thawing of the plasma, plasma drug concentrations were measured using LC/MS/MS after deproteinization with acetonitrile.
Atrioventricular block was defined as follows.
Second-degree atrioventricular block: atrial activation wave (P wave) is normal, which is followed by or not followed by ventricular activation wave (QRS wave).
Third-degree atrioventricular block: there is no electrical conduction between the atrium and the ventricle, and atrial and ventricular activation waves are generated independently, resulting in atrioventricular dissociation.
In FIG. 1, the measurements are shown as mean±standard error. […]

In data set [2] the test system is Hartley guinea pigs. As to the kind of experiment: Termination effect on siponimod-induced bradyarrhythmia in isoflurane-anesthetized guinea pig model. Format: in vivo. The text has this:
Hartley guinea pigs (7 to 10 weeks old, male, available from Japan SLC, Inc.) were subjected to anesthetic induction by inhalation of isoflurane (available from Pfizer Japan Inc.), and each animal was held on an operating table having a heater function. The trachea was incised, and a tracheal cannula (KN-375, available from Natsume Seisakusho Co., Ltd.) was inserted. The tracheal cannula was connected to a ventilator (SN-480-7, available from Shinano Seisakusho Co., Ltd.), and artificial respiration was controlled by supplying 100% oxygen at a volume of 10 mL and a ventilation rate of 60 times/minute. Isoflurane (available from Pfizer Japan Inc.) anesthesia (about 1 to 4%, carrier gas: 100% oxygen) was used for maintenance of anesthesia. A catheter (BD intramedic polyethylene tubing PE50, available from Becton, Dickinson and Company) charged with 50 units/mL heparin (available from AY PHARMACEUTICALS CO., LTD.) was inserted into each of the carotid artery and the jugular vein and placed in the blood vessel. Systemic blood pressure was measured with a high-sensitivity DC amplifier (AD-611J, available from NIHON KOHDEN CORPORATION) via the catheter placed in the carotid artery. Electrodes were attached to the body surface, and a body surface electrocardiogram was measured with a high-sensitivity amplifier (AB-611J, available from NIHON KOHDEN CORPORATION). Blood pressure and electrocardiogram data were acquired and analyzed with PowerLab/Labchart system (available from ADInstruments). After stabilization of each parameter, siponimod (available from Nissan Chemical Corporation) was continuously administered intravenously at 0.01 mg/kg for 10 minutes via the catheter placed in the jugular vein, followed by observation of the presence or absence of atrioventricular block. The solvent used was a solution prepared by mixing of Polyethylene Glycol 400 (available from KANTO CHEMICAL CO., INC.) and dimethyl sulfoxide (available from FUJIFILM Wako Pure Chemical Corporation) at 9: 1 (volume ratio). […] Data were recorded and blood was collected 10, 20, and 30 minutes after initiation of administration of compound (I) dihydrochloride and at the time of termination of atrioventricular block. […] Data were analyzed for the presence or absence of the termination, the time required for the termination, and the plasma concentration of compound (I) at the time of termination. […] After thawing of the plasma, plasma drug concentrations were measured using LC/MS/MS after deproteinization with acetonitrile. […]

“Also recorded” adds a separate entry of the source.

Turning to `Cc1cc(CO)nc2cc3c(cc12)OC(C)(C)[C@H](O)[C@H]3NCCc1ccccc1` [Compound (I), (3R,4S)-7-Hydroxymethyl-2,2,9-trimethyl-4-(phenethylamino)-3,4-dihydro-2H-pyrano[2,3-g]quinoline-3-ol], the “cases in which fingolimod-induced atrioventricular block was not observed” value is listed as 75% in the data set on Hartley guinea pigs [1] (1 mg/kg oral gavage, four cases per group) and 75% in the data set with Hartley guinea pigs [1] (3 mg/kg oral gavage, four cases per group). Also, in the data set with Hartley guinea pigs [1] (3 mg/kg oral gavage, fingolimod hydrochloride 0.1 mg/kg i.v.), the “fingolimod-induced bradycardia (ventricular beating rate)” value is “almost restored”. Also, the “fingolimod-induced bradycardia (ventricular beating rate / heart rate)” value was “completely restored; also recorded: completely resolved” in the data set on Hartley guinea pigs [1] (10 mg/kg oral gavage, fingolimod hydrochloride 0.1 mg/kg i.v.) and “improved in a dose-dependent manner; also recorded: prevented a reduction in heart rate” in the data set with Hartley guinea pigs [1] (compound (I) 1, 3, 10 mg/kg oral gavage before fingolimod hydrochloride 0.1 mg/kg i.v. over 10 min, FIG. 1). For the same compound, the “cases in which fingolimod-induced atrioventricular block was suppressed” value with Hartley guinea pigs [1] (10 mg/kg oral gavage, four cases per group) is listed as 100%. In the data set on Hartley guinea pigs [1] (1, 3, 10 mg/kg oral gavage, FIG. 1 and FIG. 2), the “onset of fingolimod-induced bradyarrhythmia (atrioventricular block)” value is recorded as “prevented the onset of fingolimod-induced bradyarrhythmia (atrioventricular block) in a dose-dependent manner”. Also, in the data set with Hartley guinea pigs [1] (compound (I) oral gavage 1-10 mg/kg), the “fingolimod-induced prolongation of QT time” value is given as “almost completely suppressed”. In addition, the “siponimod-induced bradyarrhythmia (atrioventricular block) termination” value in the data set on Hartley guinea pigs [2] (compound (I) dihydrochloride 0.1 mg/kg continuous i.v.) is recorded as “completely terminated”. For the same compound, the “Compound (I) concentration at the time of termination” value in the data set on Hartley guinea pigs [2] (plasma, siponimod-induced block, 0.1 mg/kg continuous i.v. for 30 minutes, mean±standard error) is reported as 22.7 ± 3.1 ng/mL. In addition, in the data set on Hartley guinea pigs [2] (siponimod-induced block, compound (I) dihydrochloride 0.1 mg/kg continuous i.v. for 30 minutes), the “Number of cases where atrioventricular block was terminated” value is given as 5/5. The “Time required for the termination of atrioventricular block” value in the data set with Hartley guinea pigs [2] (siponimod-induced block, compound (I) dihydrochloride 0.1 mg/kg continuous i.v. for 30 minutes, mean±standard error) was found to be 638 ± 75 s.
